Measurements reported in PubChem BioAssay AID1963851 (Molecular Pharmacology Branch, DTP, NCI, 2024).

System: 188146-221-R-J1-PDC complex spheroid viability
Test: Anticancer human tumor 188146-221-R-J1-PDC patient-derived colon adenocarcinoma cell line growth inhibition [POLQ]
Conditions: for IC50: curve of first compound; for viability, T/C: stronger effect = lower value
Outline: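 Patient-derived tumour cells were co-cultured with HUVEC and mesenchymal stem cells as multicellular spheroids at 37 °C. They were treated with POLQ inhibitors (novobiocin, ART-558, RP6685) alone or combined with other agents. Top concentrations were at or near clinical Cmax (otherwise 10 microM; SN-38 at 1 microM), decreasing in half-log steps.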

[1] = second compound 0.0316 µM, first compound 0.0316 µM
[2] = second compound 0.0316 µM, first compound 0.1 µM
[3] = second compound 0.0316 µM, first compound 0.316 µM
[4] = second compound 0.0316 µM, first compound 1 µM
[5] = second compound 0.0316 µM, first compound 3.16 µM
[6] = second compound 0.0316 µM, first compound 10 µM
[7] = second compound 0.1 µM, first compound 0.0316 µM
[8] = second compound 0.1 µM, first compound 0.1 µM
[9] = second compound 0.1 µM, first compound 0.316 µM
[10] = second compound 0.1 µM, first compound 1 µM
[11] = second compound 0.1 µM, first compound 3.16 µM
[12] = second compound 0.1 µM, first compound 10 µM
[13] = second compound 0.316 µM, first compound 0.0316 µM
[14] = second compound 0.316 µM, first compound 0.1 µM
[15] = second compound 0.316 µM, first compound 0.316 µM
[16] = second compound 0.316 µM, first compound 1 µM
[17] = second compound 0.316 µM, first compound 3.16 µM
[18] = second compound 0.316 µM, first compound 10 µM
[19] = second compound 1 µM, first compound 0.0316 µM
[20] = second compound 1 µM, first compound 0.1 µM
[21] = second compound 1 µM, first compound 0.316 µM
[22] = second compound 1 µM, first compound 1 µM
[23] = second compound 1 µM, first compound 3.16 µM
[24] = second compound 1 µM, first compound 10 µM
[25] = second compound 3.16 µM, first compound 0.0316 µM
[26] = second compound 3.16 µM, first compound 0.1 µM
[27] = second compound 3.16 µM, first compound 0.316 µM
[28] = second compound 3.16 µM, first compound 1 µM
[29] = second compound 3.16 µM, first compound 3.16 µM
[30] = second compound 3.16 µM, first compound 10 µM
[31] = second compound 10 µM, first compound 0.0316 µM
[32] = second compound 10 µM, first compound 0.1 µM
[33] = second compound 10 µM, first compound 0.316 µM
[34] = second compound 10 µM, first compound 1 µM
[35] = second compound 10 µM, first compound 3.16 µM
[36] = second compound 10 µM, first compound 10 µM
[37] = second compound 0.0316 µM, first compound 0.00316 µM
[38] = second compound 0.0316 µM, first compound 0.01 µM
[39] = second compound 0.1 µM, first compound 0.00316 µM
[40] = second compound 0.1 µM, first compound 0.01 µM
[41] = second compound 0.316 µM, first compound 0.00316 µM
[42] = second compound 0.316 µM, first compound 0.01 µM
[43] = second compound 1 µM, first compound 0.00316 µM
[44] = second compound 1 µM, first compound 0.01 µM
[45] = second compound 3.16 µM, first compound 0.00316 µM
[46] = second compound 3.16 µM, first compound 0.01 µM
[47] = second compound 10 µM, first compound 0.00316 µM
[48] = second compound 10 µM, first compound 0.01 µM
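Note: spheroids exposed to compounds for seven days.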
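Throughout, for viability, T/C: 100% = DMSO vehicle control viability.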

`COc1ccc([C@@H](O)c2cc(-c3ncnc4cc(N5CCOCC5)ccc34)c(F)cc2Cl)nn1` + Cc1cccc(N(C)C(=O)C2C(O)CCN2c2nc(C)cc(C(F)(F)F)c2C#N)c1 gave an IC50 (second compound 0.0316 µM) of 5.81 µM, an IC50 (second compound 0.1 µM) of 5.62 µM and an IC50 (second compound 0.316 µM) of 4.69 µM. For the same compound, the IC50 (second compound 1 µM) was 4.67 µM, the IC50 (second compound 3.16 µM) was 4.91 µM and the IC50 (second compound 10 µM) was 1.86 µM. It also gave a viability, T/C [1] of 97.6%, a viability, T/C [2] of 98% and a viability, T/C [3] of 87.9%. It also gave a viability, T/C [4] of 89.2%, a viability, T/C [5] of 72% and a viability, T/C [6] of 30.3%. It also gave a viability, T/C [7] of 93.6%, a viability, T/C [8] of 111% and a viability, T/C [9] of 94.3%. The viability, T/C [10] was 80.4%, the viability, T/C [11] was 61.7% and the viability, T/C [12] was 39.4%. The viability, T/C [13] was 100%, the viability, T/C [14] was 101% and the viability, T/C [15] was 100%. The viability, T/C [16] was 94%, the viability, T/C [17] was 59.4% and the viability, T/C [18] was 32%. The viability, T/C [19] was 97.9%, the viability, T/C [20] was 94.3% and the viability, T/C [21] was 94.4%. For the same compound, the viability, T/C [22] was 78.7%, the viability, T/C [23] was 59.6% and the viability, T/C [24] was 32.5%. It also gave a viability, T/C [25] of 97.3%, a viability, T/C [26] of 93.3% and a viability, T/C [27] of 90.5%. The viability, T/C [28] was 73.1%, the viability, T/C [29] was 61.7% and the viability, T/C [30] was 33.8%. For the same compound, the viability, T/C [31] was 88.2%, the viability, T/C [32] was 80.8% and the viability, T/C [33] was 85.9%. The viability, T/C [34] was 56.3%, the viability, T/C [35] was 51.9% and the viability, T/C [36] was 36.9%.

With `COc1cc2cc(C(=O)CCC(=O)O)sc2cc1OC` + Cc1cccc(N(C)C(=O)C2C(O)CCN2c2nc(C)cc(C(F)(F)F)c2C#N)c1 the IC50 (second compound 0.0316 µM) was greater than 10 µM, the IC50 (second compound 0.1 µM) was greater than 10 µM and the IC50 (second compound 0.316 µM) was greater than 10 µM. For the same compound, the IC50 (second compound 1 µM) was greater than 10 µM, the IC50 (second compound 3.16 µM) was greater than 10 µM and the IC50 (second compound 10 µM) was greater than 10 µM. It also gave a viability, T/C [1] of 95.5%, a viability, T/C [2] of 109% and a viability, T/C [3] of 94.2%. For the same compound, the viability, T/C [4] was 91.3%, the viability, T/C [5] was 103% and the viability, T/C [6] was 93.5%. It also gave a viability, T/C [7] of 102%, a viability, T/C [8] of 100% and a viability, T/C [9] of 109%. The viability, T/C [10] was 97.8%, the viability, T/C [11] was 97.5% and the viability, T/C [12] was 105%. The viability, T/C [13] was 95.9%, the viability, T/C [14] was 98.7% and the viability, T/C [15] was 93.2%. It also gave a viability, T/C [16] of 94%, a viability, T/C [17] of 96.1% and a viability, T/C [18] of 99%. It also gave a viability, T/C [19] of 94.1%, a viability, T/C [20] of 80.5% and a viability, T/C [21] of 93.6%. It also gave a viability, T/C [22] of 96.6%, a viability, T/C [23] of 112% and a viability, T/C [24] of 92.7%. The viability, T/C [25] was 100%, the viability, T/C [26] was 107% and the viability, T/C [27] was 84.8%. The viability, T/C [28] was 88.6%, the viability, T/C [29] was 92.5% and the viability, T/C [30] was 86.9%. The viability, T/C [31] was 101%, the viability, T/C [32] was 96.2% and the viability, T/C [33] was 92.3%. It also gave a viability, T/C [34] of 88.7%, a viability, T/C [35] of 88.8% and a viability, T/C [36] of 103%.

`COc1cccc(OCCCN)c1-c1cc(Nc2cnc(C#N)cn2)n[nH]1` + Cc1cccc(N(C)C(=O)C2C(O)CCN2c2nc(C)cc(C(F)(F)F)c2C#N)c1 showed an IC50 (second compound 0.0316 µM) of 0.0555 µM, an IC50 (second compound 0.1 µM) of 0.0609 µM and an IC50 (second compound 0.316 µM) of 0.0515 µM. The IC50 (second compound 1 µM) was 0.0412 µM, the IC50 (second compound 3.16 µM) was 0.0473 µM and the IC50 (second compound 10 µM) was 0.0222 µM. For the same compound, the viability, T/C [37] was 100%, the viability, T/C [38] was 103% and the viability, T/C [1] was 61.5%. The viability, T/C [2] was 36.1%, the viability, T/C [3] was 18.5% and the viability, T/C [4] was 12.1%. It also gave a viability, T/C [39] of 99.9%, a viability, T/C [40] of 90% and a viability, T/C [7] of 75.8%. The viability, T/C [8] was 30.7%, the viability, T/C [9] was 15.9% and the viability, T/C [10] was 14.2%. It also gave a viability, T/C [41] of 105%, a viability, T/C [42] of 89.7% and a viability, T/C [13] of 66%. It also gave a viability, T/C [14] of 29.6%, a viability, T/C [15] of 17.4% and a viability, T/C [16] of 13.6%. It also gave a viability, T/C [43] of 113%, a viability, T/C [44] of 104% and a viability, T/C [19] of 54.4%. The viability, T/C [20] was 29%, the viability, T/C [21] was 17.1% and the viability, T/C [22] was 12.6%. It also gave a viability, T/C [45] of 91.7%, a viability, T/C [46] of 82.1% and a viability, T/C [25] of 62.8%. The viability, T/C [26] was 27.7%, the viability, T/C [27] was 15.6% and the viability, T/C [28] was 14%. For the same compound, the viability, T/C [47] was 96%, the viability, T/C [48] was 75.3% and the viability, T/C [31] was 37.3%. The viability, T/C [32] was 24.4%, the viability, T/C [33] was 16.9% and the viability, T/C [34] was 14.6%.

`C=CCn1c(=O)c2cnc(Nc3ccc(N4CCN(C)CC4)cc3)nc2n1-c1cccc(C(C)(C)O)n1` + Nc1ccc(C#CCN(C(=O)Cc2ncc(C(F)(F)F)cc2C(F)(F)F)c2ccc(F)cc2)nn1 showed an IC50 (second compound 0.0316 µM) greater than 1 µM, an IC50 (second compound 0.1 µM) greater than 1 µM and an IC50 (second compound 0.316 µM) greater than 1 µM. It also gave an IC50 (second compound 1 µM) greater than 1 µM, an IC50 (second compound 3.16 µM) greater than 1 µM and an IC50 (second compound 10 µM) of 0.788 µM. For the same compound, the viability, T/C [37] was 112%, the viability, T/C [38] was 100% and the viability, T/C [1] was 98.6%. It also gave a viability, T/C [2] of 100%, a viability, T/C [3] of 102% and a viability, T/C [4] of 55.6%. The viability, T/C [39] was 111%, the viability, T/C [40] was 97% and the viability, T/C [7] was 119%. For the same compound, the viability, T/C [8] was 117%, the viability, T/C [9] was 109% and the viability, T/C [10] was 57.1%. The viability, T/C [41] was 115%, the viability, T/C [42] was 104% and the viability, T/C [13] was 115%. The viability, T/C [14] was 111%, the viability, T/C [15] was 84.6% and the viability, T/C [16] was 50.6%. For the same compound, the viability, T/C [43] was 119%, the viability, T/C [44] was 106% and the viability, T/C [19] was 100%. It also gave a viability, T/C [20] of 122%, a viability, T/C [21] of 101% and a viability, T/C [22] of 55.9%. It also gave a viability, T/C [45] of 107%, a viability, T/C [46] of 110% and a viability, T/C [25] of 114%. The viability, T/C [26] was 110%, the viability, T/C [27] was 108% and the viability, T/C [28] was 52.1%. It also gave a viability, T/C [47] of 114%, a viability, T/C [48] of 114% and a viability, T/C [31] of 104%. It also gave a viability, T/C [32] of 110%, a viability, T/C [33] of 98.4% and a viability, T/C [34] of 37.2%.
